From patent US20190216889A1, “METHODS AND COMPOSITIONS FOR TREATMENT OF FIBROSIS” (Children's Hospital Medical Center, priority 2018, published 2019)
Entries after “also recorded” stand apart in the source; their conditions may differ. Where no end group is shown, it is not given here.

Columns and labels:
[1] = system: murine model of unilateral renal ischemia/reperfusion (UIR); test: Unilateral renal ischemia/reperfusion (UIR) with daily i.p. peptide from day 7, tissues collected day 14; assay type: in vivo, C57BL6/J mice
Protocol: Starting seven days after surgery, pUR4 (25 mg/kg/d), III-11C (control; 25 mg/kg/d) or PBS were administered daily by intraperitoneal injection. Mice were sacrificed and tissues collected 14 days after surgery.
All procedures were approved by and performed according to the Department of Laboratory Animal Medicine and the Institutional Animal Care and Use Committee at the Cincinnati Children's Hospital Medical Center. Wild type C57BL6/J 9-10-week-old male mice (Jackson Laboratories) were used for these experiments.
Mice were allowed 1-2 weeks of acclimation upon arrival to the animal facility, after which they underwent unilateral ischemia/reperfusion (UIR) according to Le Clef et al., 2016.17 Briefly, mice were anesthetized with 3% isoflurane for surgical prep (abdominal hair removal, animal identification, etc.), and maintained at 1.5% isoflurane on a 37° C. heating pad throughout the procedure. Following surgical exposure of the ventral abdomen, an atraumatic clamp was placed on the left renal artery and vein for 30 minutes; verification of color change following reperfusion was performed by the surgeon before mice were sutured and glued (outer suture reinforcement), given buprenorphine and subcutaneous saline and returned to their cages. For each animal, the contralateral (right) kidney and renal blood vessels were visualized, but remained untouched. Sham animals underwent an identical surgical procedure, except that the left and right renal arteries and veins were exposed, but were not clamped. Seven (7) days after surgery, mice were weighed and randomly assigned to daily intraperitoneal (i.p.) injections of PBS, III-11C (control peptide; 25 mg/kg), or pUR4 (25 mg/kg).
14 days after UIR (7 days after the onset of daily peptide injections), mice were given 100U heparin and anesthetized with isoflurane; blood was collected and animals were perfused with cold PBS through the aortic arch. Kidneys were excised (and the capsule membrane carefully removed), weighed, and then bisected lengthwise; one half was placed in cold 4% paraformaledhyde overnight followed by paraffin embedding, the other half cut into ˜1 mm3 pieces and flash-frozen for RNA and protein isolation.
Fixed kidneys were paraffin embedded, sectioned at 8 μm and mounted onto glass slides. Prior to staining, the sections were deparaffinized in xylene and rehydrated to water through increasing dilutions of ethanol (100%, 95%, 70%, and then 50%). For picrosirius red staining, slides were incubated for 1 hour in 0.1% Sirius Red (in 1.3% aqueous picric acid), washed twice in acidified water (0.5% acetic acid), […] and mounted with Permount. Images were taken at 10× and 40× (Olympus BX-51 with a DS-Ril camera), and the percentage of red staining was quantified using Image J software (NIH) by two observers blinded to experimental conditions.
For immunofluorescent staining, deparaffinized and rehydrated sections were microwaved for 20 minutes in a sodium citrate antigen retrieval solution (Vector H-3300), and then permeabilized in 0.06% triton-X in TBS. Sections were blocked in 10% goat or donkey serum (depending on the secondary antibody) in TBS for 2 hours at room temperature, and then incubated with primary antibody in 1% serum/TBS overnight at 4° C. Antibodies used were as follows: lipocalin-2/NGAL (1:100; JM-3819, MBL Intl Corp), Tim1/Kim1 (1:100; AF1817, R&D Systems), CD45 (1:100; AF114, R&D Systems), fibronectin (1:100; ab2413, Abcam), collagen I (1:100; ab21286, Abcam), vimentin (1:100; ab45939, Abcam), alpha-smooth muscle actin (1:500; A5228, Sigma). Slides were then washed three times in TBST for 5 min each, and incubated with secondary antibodies for 45 minutes at room temperature. In these experiments the following secondary antibodies were used, all from Jackson ImmunoResearch: donkey anti-rabbit 488 (711-545-152), donkey anti-goat 488 (705-545-147), donkey anti-mouse 647 (715-605-150) and donkey anti-rabbit 647 (711-605-152). […]

liver fibrosis = details: localized pUR4 treatment; cited from earlier work
[2] = system: unilateral ureteral obstruction (UUO); details: obstructive model of kidney injury; cited from earlier work
[3] = biological target: fibronectin polymerization (Homo sapiens, UniProt P02751); details: in vitro; cited from earlier work
[4] = system: myocardial ischemia/reperfusion (I/R) injury; details: cited from earlier work
vascular remodeling = details: localized pUR4 treatment; cited from earlier work
[5] = 2 weeks after UIR, 25 mg/kg/d, 25 mg/kg/day
[6] = 14 days after UIR, 25 mg/kg/d, 25 mg/kg/day
[7] = injured kidney, 2 weeks after UIR, 25 mg/kg/d, 25 mg/kg/day
[8] = injured vs contralateral kidney, 14 days after UIR, 25 mg/kg i.p. daily from day 7, 25 mg/kg
[9] = kidney, 2 weeks after UIR, 25 mg/kg/d
[10] = one week systemic daily administration, up to four weeks after I/R

fibronectin polymerization, sequence (P02751 32-2477): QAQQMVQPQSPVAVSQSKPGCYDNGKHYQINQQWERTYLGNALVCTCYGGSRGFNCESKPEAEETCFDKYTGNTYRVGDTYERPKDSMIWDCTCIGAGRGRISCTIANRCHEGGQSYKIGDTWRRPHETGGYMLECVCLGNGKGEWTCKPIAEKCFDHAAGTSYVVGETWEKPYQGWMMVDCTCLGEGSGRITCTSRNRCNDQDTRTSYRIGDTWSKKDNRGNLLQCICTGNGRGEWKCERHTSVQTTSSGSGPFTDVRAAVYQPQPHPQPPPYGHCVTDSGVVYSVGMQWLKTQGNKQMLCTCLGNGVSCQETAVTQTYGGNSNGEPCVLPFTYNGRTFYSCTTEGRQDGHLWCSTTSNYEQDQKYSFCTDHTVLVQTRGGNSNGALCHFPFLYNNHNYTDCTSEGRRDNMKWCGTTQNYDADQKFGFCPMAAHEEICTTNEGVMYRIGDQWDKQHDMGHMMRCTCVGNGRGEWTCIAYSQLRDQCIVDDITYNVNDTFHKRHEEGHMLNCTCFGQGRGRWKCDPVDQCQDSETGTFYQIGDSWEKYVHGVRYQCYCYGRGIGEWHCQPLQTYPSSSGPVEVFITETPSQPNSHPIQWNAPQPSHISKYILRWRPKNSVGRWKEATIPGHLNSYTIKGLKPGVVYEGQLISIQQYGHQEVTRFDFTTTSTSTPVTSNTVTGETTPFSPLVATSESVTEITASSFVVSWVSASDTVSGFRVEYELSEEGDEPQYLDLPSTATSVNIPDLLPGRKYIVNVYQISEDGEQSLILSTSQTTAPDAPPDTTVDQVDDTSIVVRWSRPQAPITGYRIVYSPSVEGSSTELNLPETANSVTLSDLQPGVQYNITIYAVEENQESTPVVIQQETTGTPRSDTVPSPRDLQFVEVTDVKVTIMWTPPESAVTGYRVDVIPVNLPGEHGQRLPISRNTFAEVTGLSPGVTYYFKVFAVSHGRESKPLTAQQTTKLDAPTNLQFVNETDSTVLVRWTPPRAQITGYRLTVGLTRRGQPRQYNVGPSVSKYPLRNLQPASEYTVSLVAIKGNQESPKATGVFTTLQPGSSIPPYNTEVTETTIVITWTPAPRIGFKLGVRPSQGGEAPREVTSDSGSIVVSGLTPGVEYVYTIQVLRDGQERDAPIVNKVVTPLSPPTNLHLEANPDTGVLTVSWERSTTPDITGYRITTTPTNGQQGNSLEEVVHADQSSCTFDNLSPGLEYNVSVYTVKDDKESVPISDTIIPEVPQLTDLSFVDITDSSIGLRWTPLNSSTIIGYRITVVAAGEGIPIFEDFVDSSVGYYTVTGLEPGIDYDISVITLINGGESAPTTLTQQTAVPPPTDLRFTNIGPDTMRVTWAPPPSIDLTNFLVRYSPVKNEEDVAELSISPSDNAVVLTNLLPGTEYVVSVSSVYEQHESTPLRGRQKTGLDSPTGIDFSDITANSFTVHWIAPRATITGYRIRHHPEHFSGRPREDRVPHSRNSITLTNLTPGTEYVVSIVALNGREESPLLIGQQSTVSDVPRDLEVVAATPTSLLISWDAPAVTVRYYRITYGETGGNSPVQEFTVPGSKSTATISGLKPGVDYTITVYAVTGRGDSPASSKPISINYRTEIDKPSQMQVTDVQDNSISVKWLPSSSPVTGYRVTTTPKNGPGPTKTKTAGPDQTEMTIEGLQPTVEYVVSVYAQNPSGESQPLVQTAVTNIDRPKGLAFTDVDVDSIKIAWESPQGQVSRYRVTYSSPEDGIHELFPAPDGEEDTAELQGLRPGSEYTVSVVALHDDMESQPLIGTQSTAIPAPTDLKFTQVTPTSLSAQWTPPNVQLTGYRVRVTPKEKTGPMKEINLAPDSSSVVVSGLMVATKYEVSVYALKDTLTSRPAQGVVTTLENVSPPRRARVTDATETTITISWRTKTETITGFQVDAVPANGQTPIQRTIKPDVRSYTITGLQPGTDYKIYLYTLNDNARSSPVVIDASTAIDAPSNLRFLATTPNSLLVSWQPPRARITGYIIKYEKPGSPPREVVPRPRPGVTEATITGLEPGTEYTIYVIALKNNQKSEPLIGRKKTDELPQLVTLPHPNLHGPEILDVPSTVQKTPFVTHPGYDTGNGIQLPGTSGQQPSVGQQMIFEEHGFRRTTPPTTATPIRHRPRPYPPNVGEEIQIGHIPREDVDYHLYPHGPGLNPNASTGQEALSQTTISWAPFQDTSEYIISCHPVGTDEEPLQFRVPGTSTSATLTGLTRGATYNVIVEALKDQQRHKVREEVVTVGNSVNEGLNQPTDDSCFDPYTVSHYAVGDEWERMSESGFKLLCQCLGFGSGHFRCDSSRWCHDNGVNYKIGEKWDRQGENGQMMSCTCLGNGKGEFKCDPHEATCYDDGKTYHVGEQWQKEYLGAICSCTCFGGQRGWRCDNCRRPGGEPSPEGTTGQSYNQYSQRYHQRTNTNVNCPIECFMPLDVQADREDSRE

CKDQSPLAGESGETEYITEVYGNQQNPVDIDKKLPNETGFSGNMVETEDT (also: His tag) [pUR4]
kidney weight / kidney weight-to-body weight ratio [1, 5]: partially restored; also recorded: significantly recovered
mature fibrillar collagen, second harmonic generation (SHG) [1, 5]: alleviation of fibrotic collagen deposition; also recorded: decreased kidney fibrosis
collagen deposition and maturation, picrosirius red staining (brightfield and polarized light) ([1]; 2 weeks after UIR, pUR4 vs III-11C, 25 mg/kg/d): decreased; also recorded: attenuated
periglomerular fibrosis (fibronectin, α-SMA and vimentin surrounding glomeruli) ([1]; 14 days after UIR, 25 mg/kg/d): reduced periglomerular fibrosis
alpha-smooth muscle actin (α-SMA) expression / positive cells, immunostaining [1, 6]: abrogated; also recorded: diminished
collagen I deposition, immunofluorescence [1, 6]: reduces this expansion; also recorded: concomitant decrease
fibronectin deposition in kidney interstitium, immunofluorescence [1, 6]: reduces this expansion; also recorded: decreased the amount of fibronectin
vimentin expression / expansion of vimentin-positive cells outside the glomerulus, immunostaining [1, 6]: abrogated; also recorded: diminished
CD45+ immune cell accumulation, immunostaining [1, 7]: abrogated
tubule damage and cellular infiltration, H&E staining [1, 7]: abrogates; also recorded: decrease in cellular infiltrate and reduced tubule damage
Havcr1 transcript expression, qPCR of kidney lysates [1, 8]: nearly abolished; also recorded: significantly reduced
lipocalin-2 (Lcn-2) transcript expression, qPCR of kidney lysates [1, 8]: nearly abolished; also recorded: significantly reduced
NGAL (lipocalin-2) protein expression, immunofluorescent staining [1, 9]: decreased
Tim-1/Kim-1 (Havcr1) protein expression, immunofluorescent staining [1, 9]: decreased
effect of injection in animals that underwent sham surgery ([1]; sham surgery, PBS vs III-11C vs pUR4): no differences were observed
excess ECM deposition (liver fibrosis): attenuates
fibrosis [2]: attenuate fibrosis
fibronectin polymerization [3]: inhibit
fibronectin production or secretion [3]: not its production or secretion
deposition of ECM proteins ([4]; after myocardial I/R): attenuated
neutrophil infiltration ([4]; after myocardial I/R): reduced
proliferation of activated cardiac myofibroblasts ([4]; after myocardial I/R): reduced
cardiac function [4, 10]: improves
pathologic fibrosis and cardiac remodeling [4, 10]: decreases
excess ECM deposition (vascular remodeling): attenuates
